A short description of data set [1]: Plasma levels following oral administration to rats. The settings on record: rat, normalised dose of 1 mg of compound per kilogram of rat body weight. In kind it is in vivo. On the procedure: Planetary Milled compounds [15 mins, 500 rpm, 5 Zirconium Balls, in a Puluerisette 7 Mill (Glen Creston Ltd, Stanmore, Middlesex, UK)] were suspended in 0.5% HPMC Tween and dosed to High Fat Fed (Research Diets, D12451, ad lib feeding 14 days) Female Alderley Park Zucker or Alderley Park Wistar rats at rate of 5 mls/kg, at doses between 0.3 and 10 mg/kg by oral gavage.
Samples of plasma were obtained either by conscious blood sampling or terminal blood sampling as follows:
Conscious blood sampling (for compound level or blood chemistry)—Intravenous blood samples were taken from tail vein using 600 μl Starstedt Multivette (EDTA) and 22 G needle at the required time point. […]
The reconstituted samples were then analysed using high performance liquid chromatography with tandem mass spectrometry detection (HPLC-MS-MS)”. […]
The concentration of test samples was determined from the ratio of the peak height of the test sample to the peak height of the internal standard. The concentration of the test sample was calculated with reference to a standard curve relating the ratio to the concentration prepared by using known concentrations of test sample added to samples of rat plasma using (3-isopropoxy-5-benzyoxy-benzoyl)amino pyridine 3-carboxylic acid as an internal standard, treated as described above.

Data set [2] is described as follows: Plasma protein binding by equilibrium dialysis. In kind it is in vitro ADME. The settings on record: rat, 18 hours at 37° C., plasma vs isotonic phosphate buffer pH 7.4, read-out: % free in plasma. How it is done:
The plasma protein binding of compounds was measured using the equilibrium dialysis technique (W. Lindner et al, J. Chromatography, 1996, 677, 1-28). Compound was dialysed at a concentration of 20 μM for 18 hours at 37° C. with plasma and isotonic phosphate buffer pH 7.4 (1 ml of each in the dialysis cell). A Spectrum® 20-cell equilibrium dialyser was used together with Teflon, semi-micro dialysis cells and Spectra/Por®2 membrane discs with a molecular weight cut off 12-14000 Dalton, 47 mm (supplied by PerBio Science UK Ltd, Tattenhall, Cheshire). Plasma and buffer samples are removed following dialysis and analysed using HPLCUV/MS (high performance liquid chromatography with UV and mass spec detection) to give the % free level in plasma.
(In equilibrium dialysis free small molecules cross a membrane that holds back macromolecules.)

Data set [3] is described as follows: Estimation of plasma half-life. In kind it is in vivo. The settings on record: rat, typically determined following intravenous administration, read-out: t½ (half life in plasma) (converted). An excerpt:
The plasma half-life is the time taken for the concentration of compound in the plasma to decline to half of its original value. This is typically determined following intravenous administration of the test compound, followed by measurement of the compound concentrations in plasma samples as described above. The plasma half-life is estimated from a semilogarithmic plot, plotting the log of the plasma concentration (lnCp) against sample time (t, linear). The apparent first-order elimination rate constant, k, is equal to the slope of the line, and the elimination half-life (t½) is […] (Gibaldi, M and Perrier, D, 1975 Pharmacokinetics, Marcel Dekker, New York): […]

Data set [4] deals with T1, glucokinase (GLK) (Homo sapiens, UniProt P35557).
T1 sequence (P35557 1-466 isoform P35557-2): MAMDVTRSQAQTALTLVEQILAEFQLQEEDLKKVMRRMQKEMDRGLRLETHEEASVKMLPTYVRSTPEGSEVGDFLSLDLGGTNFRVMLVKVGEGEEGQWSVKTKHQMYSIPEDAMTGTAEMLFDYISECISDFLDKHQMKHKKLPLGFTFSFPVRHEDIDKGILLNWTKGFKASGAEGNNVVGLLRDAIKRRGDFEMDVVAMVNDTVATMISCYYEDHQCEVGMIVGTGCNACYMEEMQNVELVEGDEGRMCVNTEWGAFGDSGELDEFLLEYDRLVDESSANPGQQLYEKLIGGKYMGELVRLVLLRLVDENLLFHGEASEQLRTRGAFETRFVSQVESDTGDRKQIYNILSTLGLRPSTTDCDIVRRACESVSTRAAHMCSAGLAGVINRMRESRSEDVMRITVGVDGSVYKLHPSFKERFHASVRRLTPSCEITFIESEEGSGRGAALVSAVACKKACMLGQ
Description: biochemical.

As usually defined, the half-life is how long it takes for the measured level to halve. What is called EC50 is the concentration at which the effect is half-maximal. The low end stands for an effect from little substance, the high end for a need for much substance.

On to `COC[C@H](C)Oc1cc(Oc2ccc3c(c2)OCO3)cc(C(=O)Nc2ccc(C(=O)O)cn2)c1` [Example 2, 6-{[(3-(1,3-benzodioxol-5-yloxy)-5-{[(1S)-1-methyl-2-(methyloxy)ethyl]oxy}phenyl)carbonyl]amino}pyridine-3-carboxylic acid], for which the “Peak Blood levels (including both bound and free)” value in data set [1] worked out at 2.7 µM. Moreover, the fraction unbound at 18 hours, 20 μM in data set [2] was found to be 0.0026. Also, the half-life in data set [3] was 6.4 h. The same molecule came in with an EC50 in data set [4] of 60 nM.
